From paper PMC11313193, “Which Constituents Determine the Antioxidant Activity and Cytotoxicity of Garlic? Role of Organosulfur Compounds and Phenolics” (International Journal of Molecular Sciences, 2024)
Read-outs that look alike come from different tables or passages of the source.

Columns and labels:
[1] = DPPH^● decolorization assay; details: 30 min at ambient temperature in the dark, absorbance at 517 nm
Experimental: The assay was performed as described in a previous article. Briefly, increasing volumes of solutions of the studied compounds were introduced to wells of a 96-well microplate, each with 200 μL of 0.3 mM DPPH^● solution in methanol. The reaction was allowed to proceed for 30 min at ambient temperature in the dark, and absorbance at 517 nm was read. The absorbance decrease was a measure of the antioxidant activity.
(§1) All assays were standardized with respect to Trolox. The antioxidant activity was calculated in each case as a ratio of the slope of the dependence of absorbance change on the concentration of a studied compound to the slope of the dependence of absorbance change of standard samples concerning Trolox on the concentration of Trolox. Antioxidant activities were expressed in moles of Trolox equivalents (TE)/mol of a studied compound, as described previously.

[2] = test system: SKOV-3 ovarian cancer cells; assay: Cytotoxicity (Neutral Red), SKOV-3 cells; assay type: cell-based, human; details: 24 h exposure; for IC50: Homo sapiens, SK-OV-3, Neutral Red, read-out: IC50 SKOV-3; for Concentration at which viability of SKOV-3 cells was lowered: p < 0.05
Experimental: (§2) The PEO1 cells, SKOV-3 cells, and MRC-5 cells were grown at 37 °C and 5% CO2 in RPMI + GlutaMAX medium, McCoy’s 5A medium, and the DMEM + GlutaMAX medium, respectively. The media were supplemented with 10% heat-inactivated fetal calf serum and penicillin/streptomycin. The cell viability was evaluated using the Trypan Blue exclusion test.
(§3) In the cytotoxicity experiments, cells were grown in wells of sterile 96-well plates. The seeding density was 1 × 10^4 for SKOV-3 and MRC-5 cells and 1.5 × 10^4 for PEO1 cells. The cells were allowed to grow in the incubator for 24 h. Then, the medium was removed and new medium with an examined compound was added. The stock solutions of the compounds studied diluted with the appropriate cell medium were filtered before the addition to the cells using 0.22 µm filters. No more than 0.02% of DMSO was present in the media, and it had no discernible impact on the treated cells. Cells not exposed to any compound served as a control. After another 24 h incubation, the medium was gently aspirated, and the wells were added with 2% sterile Neutral Red solution (100 µL). The plates were then incubated (37 °C, 5% CO2) for one hour. The Neutral Red solution was aspirated, and the wells were washed two times with warm (37 °C) PBS. Subsequently, 100 µL of a permeabilization mixture (water/ethanol/glacial acetic acid, 50/49/1, v/v/v) was introduced to each well. The plates were shaken at 700 rpm for 20 min and absorbance was read at a wavelength of 540 nm against 620 nm.

MRC-5 fibroblasts = assay: Cytotoxicity (Neutral Red), MRC-5 fibroblasts; assay type: cell-based, human; details: for IC50: read-out: IC50 MRC-5; for Concentration at which viability of MRC-5 cells was lowered: p < 0.05
Experimental: as §2, §3

[3] = ABTS^● decolorization assay; details: 30 min incubation at room temperature, absorbance at 734 nm
Experimental: A modification of the ABTS^● decolorization assay was employed. Briefly, various volumes of solutions of the studied compounds were introduced to wells of a 96-well microplate, each prefilled 200 μL of ABTS^● solution. […] The drop in absorbance after 30 min incubation at room temperature was read as a measure of the antioxidant activity.
as §1

[4] = Ferric reducing antioxidant power (FRAP) assay; details: 30 min at ambient temperature, pH 3.6, absorbance at 593 nm
Experimental: The method proposed by Benzie and Strain [91] was employed with a slight modification. Briefly, increasing volumes of solutions of the studied compounds were added to wells of a 96-well microplate prefilled with 200 μL of the working solution composed of 0.3 M acetate buffer, pH 3.6 (10 volumes), 10 mM 2,4,6-tris(2-pyridyl)-s-triazine (TPTZ), in 40 mM HCl (1 volume) and 20 mM FeCl3 (1 volume), was prepared immediately before use. After 30 min incubation at ambient temperature and the absorbance of the Fe^2+-TPTZ complex was read at 593 nm.
as §1

[5] = test system: PEO1 ovarian cancer cells; assay: Cytotoxicity (Neutral Red), PEO1 cells; assay type: cell-based, human; details: for IC50: Homo sapiens, read-out: IC50 PEO1
Experimental: as §2, §3

neuroblastoma N2a cells = test system: neuroblastoma N2a cells; parameters: method as in PMID 24760364; details: after 24 h; read-out: Concentration decreasing proliferation of N2a cells by 50%; cited from earlier work
[6] = test system: colorectal carcinoma HCT-15 cells; parameters: method as in PMID 24282361; details: after 48 h exposure; read-out: Concentration decreasing proliferation of HCT-15 cells by 50%; cited from earlier work
[7] = test system: colon carcinoma HT-29 cells; parameters: method as in PMID 24282361; details: after 48 h exposure; read-out: Concentration decreasing proliferation of HT-29 cells by 50%; cited from earlier work
B16 melanocytes = test system: B16 melanocytes; parameters: method as in PMID 33178586; details: read-out: Concentration decreasing proliferation of B16 melanocytes by 50%; cited from earlier work
A375 melanocytes = test system: A375 melanocytes; parameters: method as in PMID 33178586; details: read-out: Concentration decreasing proliferation of A375 melanocytes by 50%; cited from earlier work
[8] = test system: breast cancer MCF-7 cells; parameters: method as in PMID 18817629; details: 24 h exposure; read-out: Concentration decreasing viability of MCF-7 cells to about 50%; cited from earlier work
[9] = test system: prostatic carcinoma LNCaP cells; parameters: method as in PMID 16142693; details: 100 μM, 24 h exposure; cited from earlier work
[10] = test system: microsomal lipid peroxidation; parameters: method as in PMID 16822206; details: cited from earlier work
[11] = test system: colorectal cancer HCT-116 cells; parameters: method as in PMID 19202565; details: 400 μM, 24 h exposure; cited from earlier work
[12] = test system: cervical epidermoid carcinoma Ca Ski cells; parameters: method as in PMID 19035312; details: 24 h exposure; read-out: Concentration decreasing viability of Ca Ski cells to about 50%; cited from earlier work
MDA-MB-468 cells = test system: MDA-MB-468 cells; parameters: method as in earlier work; details: 1.5 mM, 24 h exposure; cited from earlier work
[13] = test system: lung epithelial BEAS-2B cells; parameters: method as in earlier work; details: 1.5 mM, 24 h exposure; cited from earlier work
lung cancer A549 cells = test system: lung cancer A549 cells; parameters: method as in PMID 16024053; details: 200 μM, 24 h exposure; cited from earlier work
[14] = test system: A2780 human ovarian carcinoma cells; parameters: method as in PMID 24362328; details: prolonged treatment; cited from earlier work
SKOV-3 cells = test system: SKOV-3 cells; parameters: method as in PMID 16675472; details: cited from earlier work
[15] = test system: breast cancer HCC-70 cells; parameters: method as in PMID 32286702; details: 1 mM, 24 h exposure; cited from earlier work
[16] = test system: breast cancer MCF-7 cells; parameters: method as in PMID 32286702; details: 1 mM, 24 h exposure; cited from earlier work
[17] = Homo sapiens, MRC5, 24 h exposure, Neutral Red
[18] = PEO1, 24 h exposure, Neutral Red

C=CCSCC(N)C(=O)O (stereo in doubt) [S-Allyl-D-cysteine]
Antioxidant activity, DPPH^● Decolorization [1]: −0.020 ± 0.004 mol Trolox equivalents (TE)/mol compound | IC50 [2]: 421 µM | IC50 (MRC-5 fibroblasts; [17]): 578 µM | Antioxidant activity, ABTS^● Decolorization [3]: 0.070 ± 0.059 mol Trolox equivalents (TE)/mol compound | Antioxidant activity, FRAP [4]: 0.0003 ± 0.0002 mol Trolox equivalents (TE)/mol compound

C=CCSCC=C [Allyl sulfide]
Antioxidant activity, DPPH^● Decolorization [1]: −0.006 ± 0.011 mol Trolox equivalents (TE)/mol compound | Concentration range with no significant decrease in viability of SKOV-3 cells [2]: up to 100 µM | Concentration at which viability of SKOV-3 cells was lowered [2]: 200 to 500 µM | IC50 [2]: 243 µM | Concentration range with no significant decrease in viability of MRC-5 cells (MRC-5 fibroblasts; 24 h exposure): up to 100 µM | Concentration at which viability of MRC-5 cells was lowered (MRC-5 fibroblasts; 24 h exposure): 200 to 500 µM | IC50 (MRC-5 fibroblasts; [17]): 163 µM | Antioxidant activity, ABTS^● Decolorization [3]: 0.016 ± 0.010 mol Trolox equivalents (TE)/mol compound | Antioxidant activity, FRAP [4]: 0.0026 ± 0.0010 mol Trolox equivalents (TE)/mol compound | Concentration range with no significant decrease in viability of PEO1 cells ([5]; 24 h exposure): up to 100 µM | IC50 [5, 18]: 257 µM

O=C(O)/C=C/c1ccc(O)cc1 [Coumaric acid]
Antioxidant activity, DPPH^● Decolorization [1]: 0.076 ± 0.005 mol Trolox equivalents (TE)/mol compound | IC50 (neuroblastoma N2a cells): 104 µM | IC50 [6]: 1600 µM | Concentration range with no significant decrease in viability of SKOV-3 cells [2]: 0 to 1000 µM | IC50 [7]: 1400 µM | Concentration range with no significant decrease in viability of MRC-5 cells (MRC-5 fibroblasts; 24 h exposure): 0 to 1000 µM | Antioxidant activity, ABTS^● Decolorization [3]: 0.585 ± 0.082 mol Trolox equivalents (TE)/mol compound | Antioxidant activity, FRAP [4]: 0.153 ± 0.003 mol Trolox equivalents (TE)/mol compound | IC50 (B16 melanocytes): 2800 µM | IC50 (A375 melanocytes): 2500 µM | Concentration range with no significant decrease in viability of PEO1 cells ([5]; 24 h exposure): 0 to 1000 µM | IC50 [5, 18]: 1430 µM

C=CCSSCC=C [Diallyl disulfide, diallyl disulfide]
IC50 [8]: 400 µM | Antioxidant activity, DPPH^● Decolorization [1]: 0.049 ± 0.014 mol Trolox equivalents (TE)/mol compound | Reduction of survival of LNCaP cells [9]: about 30% | Concentration at which viability of MRC-5 cells was lowered (MRC-5 fibroblasts; 24 h exposure): 300 µM | IC50 (MRC-5 fibroblasts; Homo sapiens, MRC5, 24 h): 268 µM | Termination of lipid peroxidation / prevention of induced microsomal lipid peroxidation [10]: efficient lipid peroxidation terminator | Survival of HCT-116 cells (decreased to) [11]: ca. 80% | Antioxidant activity, ABTS^● Decolorization [3]: 0.013 ± 0.006 mol Trolox equivalents (TE)/mol compound | IC50 [12]: ~25 µM | Viability of MDA-MB-468 cells (reduced to) (MDA-MB-468 cells): about 65% | Viability of BEAS-2B cells (reduced to) [13]: about 75% | Antioxidant activity, FRAP [4]: 0.0025 ± 0.0011 mol Trolox equivalents (TE)/mol compound | IC50 ([5]; PEO1, 24 h): 265 µM | Reduction of survival of A549 cells (lung cancer A549 cells): about 20%

C=CCSSSCC=C [Diallyl trisulfide, diallyl trisulfide]
Antioxidant activity, DPPH^● Decolorization [1]: 0.005 ± 0.0003 mol Trolox equivalents (TE)/mol compound | Concentration at which viability of SKOV-3 cells was lowered [2]: 50 µM | IC50 [2]: 154 µM | Concentration range with no significant decrease in viability of MRC-5 cells (MRC-5 fibroblasts; 24 h exposure): 0 to 50 µM | Antioxidant activity, ABTS^● Decolorization [3]: 0.030 ± 0.006 mol Trolox equivalents (TE)/mol compound | Antioxidant activity, FRAP [4]: 0.0022 ± 0.0004 mol Trolox equivalents (TE)/mol compound | Concentration at which viability of PEO1 cells was lowered ([5]; 24 h exposure, p < 0.05): 50 µM | IC50 [5, 18]: 721 µM

C=CCSC[C@H](N)C(=O)O [SAC, S-allylcysteine]
Apoptosis of A2780 cells [14]: provoked apoptosis | Migration and invasiveness of A2780 cells [14]: attenuated | Proliferation of A2780 cells [14]: inhibited proliferation | Migration of SKOV-3 cells and their invasiveness (SKOV-3 cells): inhibited | Termination of lipid peroxidation / prevention of induced microsomal lipid peroxidation [10]: ineffective

alliin
Antioxidant activity, DPPH^● Decolorization [1]: 0.004 ± 0.001 mol Trolox equivalents (TE)/mol compound | Viability of HCC-70 cells (decreased down to) [15]: ca. 85% | IC50 (MRC-5 fibroblasts; 24 h exposure, Neutral Red): 321 µM | Termination of lipid peroxidation / prevention of induced microsomal lipid peroxidation [10]: ineffective | Viability of MCF-7 cells (decreased down to) [16]: ca. 75% | Antioxidant activity, ABTS^● Decolorization [3]: 0.035 ± 0.012 mol Trolox equivalents (TE)/mol compound | Antioxidant activity, FRAP [4]: 0.0006 ± 0.0007 mol Trolox equivalents (TE)/mol compound
